Tested on: Plasmodium berghei
Test: Luciferase/luciferin-expressing antifolate-resistant parasites were used to infect a culture of HepG2 cells that were pre-incubated with compounds. Infected hepatocytes emit light due to the luciferase reaction. Assay results are presented as the percent inhibition of light emission compared to control. […]
Format: functional
Conditions: sporozoite; for IC90: read-out: LUCIFERASE INFECTION ASSAY - IC90

Structure (SMILES): CCS(=O)(=O)N1Cc2ccccc2CC1C(=O)Nc1nc2ccc(F)cc2s1 (stereo not given)
- IC50 (PBLUC_HILL_SLOPE 0.63, PBLUC_R_SQUARED 0.752, read-out: LUCIFERASE INFECTION ASSAY - IC50): 2.29 µM
- IC90: > 10 µM

Structure (SMILES): OCc1ccc(-c2cn3c(-c4cccc(Cl)c4)cnc3cn2)cc1
- IC50 (PBLUC_HILL_SLOPE 0.56, PBLUC_R_SQUARED 0.237, read-out: LUCIFERASE INFECTION ASSAY - IC50): > 9.83 µM
- IC90: > 9.83 µM

Structure (SMILES): CCCn1nc(C(=O)OCC(=O)c2cc(C)n(CC(F)(F)F)c2C)c2ccccc2c1=O
- IC50 (PBLUC_HILL_SLOPE 0.53, PBLUC_R_SQUARED 0.241, read-out: LUCIFERASE INFECTION ASSAY - IC50): > 10 µM
- IC90: > 10 µM

Structure (SMILES): COc1ccc(C)cc1CN1CCN(c2ccc(S(=O)(=O)NC(C)(C)C)cc2[N+](=O)[O-])CC1
- IC50 (PBLUC_HILL_SLOPE 0.589, PBLUC_R_SQUARED 0.215, read-out: LUCIFERASE INFECTION ASSAY - IC50): > 10 µM
- IC90: > 10 µM

Structure (SMILES): CCOC(=O)c1c(/C=C/C(=O)Nc2nc(C)cs2)c(C)n(CC)c1C
- IC50 (PBLUC_HILL_SLOPE 0.644, PBLUC_R_SQUARED 0.0145, read-out: LUCIFERASE INFECTION ASSAY - IC50): > 10 µM
- IC90: > 10 µM

Structure (SMILES): O=C1C=CC(=O)N1c1ccccc1Oc1ccc(Cl)cc1Cl
- IC50 (PBLUC_HILL_SLOPE 0.641, PBLUC_R_SQUARED 0.0559, read-out: LUCIFERASE INFECTION ASSAY - IC50): > 9.88 µM
- IC90: > 9.88 µM

Structure (SMILES): O=C(Nc1ccc2nc(Cc3ccccc3)nn2c1)Nc1cccs1
- IC50 (PBLUC_HILL_SLOPE 0.558, PBLUC_R_SQUARED 0.579, read-out: LUCIFERASE INFECTION ASSAY - IC50): 0.969 µM
- IC90: > 3.33 µM

Structure (SMILES): CCCN1CCN(C(=O)c2ccc(-c3ccc(C(C)=O)cc3)o2)CC1
- IC50 (PBLUC_HILL_SLOPE 0.574, PBLUC_R_SQUARED 0.0124, read-out: LUCIFERASE INFECTION ASSAY - IC50): > 10 µM
- IC90: > 10 µM

Structure (SMILES): O=C(Nc1cnc2ccccc2c1)c1cccc(NC(=O)c2cccs2)c1
- IC50 (PBLUC_HILL_SLOPE 0.461, PBLUC_R_SQUARED 0.664, read-out: LUCIFERASE INFECTION ASSAY - IC50): 0.217 µM
- IC90: > 10 µM

Structure (SMILES): O=C(NCCc1nc(-c2ccccc2)no1)c1cc2cc(Cl)ccc2o1
- IC50 (PBLUC_HILL_SLOPE 0.5, PBLUC_R_SQUARED 0.259, read-out: LUCIFERASE INFECTION ASSAY - IC50): > 8.97 µM
- IC90: > 8.97 µM

Structure (SMILES): C#CCSc1nnc(-c2ccc(C(C)(C)C)cc2)n1-c1ccc(C(C)C)cc1
- IC50 (PBLUC_HILL_SLOPE 0.5, PBLUC_R_SQUARED 0.648, read-out: LUCIFERASE INFECTION ASSAY - IC50): > 8.47 µM
- IC90: > 8.47 µM

Structure (SMILES): O=C(Cc1coc2cc3c(cc12)CCC3)OCc1nccn1C(F)F
- IC50 (PBLUC_HILL_SLOPE 0.616, PBLUC_R_SQUARED 0.411, read-out: LUCIFERASE INFECTION ASSAY - IC50): > 10 µM
- IC90: > 10 µM

Structure (SMILES): CC1CCN(C(=O)COC(=O)c2cc(-c3ccc(Cl)cc3)nc3ccccc23)c2ccccc2S1 (stereo not given)
- IC50 (PBLUC_HILL_SLOPE 0.574, PBLUC_R_SQUARED 0.62, read-out: LUCIFERASE INFECTION ASSAY - IC50): 2.73 µM
- IC90: > 10 µM

Structure (SMILES): COCCn1c(C(=O)OC)c(NC(=O)c2ccco2)c2cc(NCCc3ccccc3)cnc21
- IC50 (PBLUC_HILL_SLOPE 0.526, PBLUC_R_SQUARED 0.429, read-out: LUCIFERASE INFECTION ASSAY - IC50): 4.07 µM
- IC90: > 7.14 µM

Structure (SMILES): O=C(O)c1c2c(nc3ccccc13)/C(=C/c1ccccc1Cl)CC2
- IC50 (PBLUC_HILL_SLOPE 0.525, PBLUC_R_SQUARED 0.706, read-out: LUCIFERASE INFECTION ASSAY - IC50): 0.569 µM
- IC90: > 10 µM

Structure (SMILES): Cc1cc(Oc2c(C)cccc2C)c2ccccc2n1
- IC50 (PBLUC_HILL_SLOPE 0.514, PBLUC_R_SQUARED 0.0638, read-out: LUCIFERASE INFECTION ASSAY - IC50): > 12.5 µM
- IC90: > 12.5 µM

Structure (SMILES): O=C(Nc1cccc(C(F)(F)F)c1)Nc1cnn(-c2ccc(Cl)cc2)c1C(F)(F)F
- IC50 (PBLUC_HILL_SLOPE 0.579, PBLUC_R_SQUARED 0.471, read-out: LUCIFERASE INFECTION ASSAY - IC50): 1.04 µM
- IC90: > 7.35 µM

Structure (SMILES): Fc1cccc(NC(=S)NN=C2CCCCCC2)c1
- IC50 (PBLUC_HILL_SLOPE 0.519, PBLUC_R_SQUARED 0.189, read-out: LUCIFERASE INFECTION ASSAY - IC50): > 11.8 µM
- IC90: > 11.8 µM

Structure (SMILES): CN(C)CCCNc1cc(N(C)C)c(N)c2c1C(=O)c1ccccc1C2=O
- IC50 (PBLUC_HILL_SLOPE 0.553, PBLUC_R_SQUARED 0.182, read-out: LUCIFERASE INFECTION ASSAY - IC50): > 9.01 µM
- IC90: > 9.01 µM

Structure (SMILES): FC(F)(F)c1cccc(NC(=S)NC2CC3C=CC2C3)c1 (stereo not given)
- IC50 (PBLUC_HILL_SLOPE 0.542, PBLUC_R_SQUARED 0.315, read-out: LUCIFERASE INFECTION ASSAY - IC50): 4.71 µM
- IC90: > 10.6 µM

Structure (SMILES): CCOC(=O)c1c(Sc2ccccc2)cnn1C(=O)Nc1cccc(Cl)c1
- IC50 (PBLUC_HILL_SLOPE 0.46, PBLUC_R_SQUARED 0.851, read-out: LUCIFERASE INFECTION ASSAY - IC50): > 8.21 µM
- IC90: > 8.21 µM

Structure (SMILES): COC(=O)C1=C(Sc2ccc(Cl)cc2)CSC1
- IC50 (PBLUC_HILL_SLOPE 0.458, PBLUC_R_SQUARED 0.122, read-out: LUCIFERASE INFECTION ASSAY - IC50): > 11.5 µM
- IC90: > 11.5 µM

Structure (SMILES): Cc1cc(-c2nc(=O)c3ccccc3[nH]2)c(C)n1-c1cccc(S(=O)(=O)N2CCOCC2)c1
- IC50 (PBLUC_HILL_SLOPE 0.619, PBLUC_R_SQUARED 0.0201, read-out: LUCIFERASE INFECTION ASSAY - IC50): > 10 µM
- IC90: > 10 µM

Structure (SMILES): CCc1cccc2c(/C=C(/C(=O)NCc3ccccn3)c3nc4ccccc4[nH]3)c[nH]c12
- IC50 (PBLUC_HILL_SLOPE 0.583, PBLUC_R_SQUARED 0.274, read-out: LUCIFERASE INFECTION ASSAY - IC50): > 10 µM
- IC90: > 10 µM

Structure (SMILES): Cc1ccc(NC(=O)c2[nH]nc3c2CCCC3)cc1Cl
- IC50 (PBLUC_HILL_SLOPE 0.552, PBLUC_R_SQUARED 0.432, read-out: LUCIFERASE INFECTION ASSAY - IC50): 0.0735 µM
- IC90: > 2 µM

Structure (SMILES): O=S(=O)(c1ccc(C(F)(F)F)cn1)c1cccs1
- IC50 (PBLUC_HILL_SLOPE 0.531, PBLUC_R_SQUARED 0.132, read-out: LUCIFERASE INFECTION ASSAY - IC50): > 11.3 µM
- IC90: > 11.3 µM

Structure (SMILES): CCCN(CCC)C(=S)NC(=O)c1cccc([N+](=O)[O-])c1
- IC50 (PBLUC_HILL_SLOPE 0.519, PBLUC_R_SQUARED 0.204, read-out: LUCIFERASE INFECTION ASSAY - IC50): > 10.7 µM
- IC90: > 10.7 µM

Structure (SMILES): CC(C)(C)CC(=O)Nc1ccc2nc(-c3cccs3)nn2c1
- IC50 (PBLUC_HILL_SLOPE 0.64, PBLUC_R_SQUARED 0.361, read-out: LUCIFERASE INFECTION ASSAY - IC50): 2.36 µM
- IC90: > 10 µM

Structure (SMILES): Cc1cc(/C=C(\C#N)C(=O)OCc2ccccn2)c(C)n1CC(C)C
- IC50 (PBLUC_HILL_SLOPE 0.483, PBLUC_R_SQUARED 0.335, read-out: LUCIFERASE INFECTION ASSAY - IC50): 6.62 µM
- IC90: > 10 µM

Structure (SMILES): CCOC(=O)c1c(NC(=O)Cn2c(=O)c(C#N)c3n(c2=O)CCC3)sc(C)c1CC
- IC50 (PBLUC_HILL_SLOPE 0.645, PBLUC_R_SQUARED 0.0864, read-out: LUCIFERASE INFECTION ASSAY - IC50): > 10 µM
- IC90: > 10 µM

Structure (SMILES): O=C(NCC1CC1)Nc1csc(Cc2c(Cl)cccc2Cl)n1
- IC50 (PBLUC_HILL_SLOPE 0.58, PBLUC_R_SQUARED 0.694, read-out: LUCIFERASE INFECTION ASSAY - IC50): > 9.26 µM
- IC90: > 9.26 µM

Structure (SMILES): Cc1cc(=O)oc2cc(OCc3ccc(C(=O)Nc4nc5ccccc5[nH]4)cc3)ccc12
- IC50 (PBLUC_HILL_SLOPE 0.6, PBLUC_R_SQUARED 0.47, read-out: LUCIFERASE INFECTION ASSAY - IC50): 3.19 µM
- IC90: > 10 µM

Structure (SMILES): CN1CCN(c2ccc(-c3cn4c(-c5ccccc5Cl)cnc4cn3)cn2)CC1
- IC50 (PBLUC_HILL_SLOPE 0.491, PBLUC_R_SQUARED 0.57, read-out: LUCIFERASE INFECTION ASSAY - IC50): 3.67 µM
- IC90: > 8.15 µM

Structure (SMILES): COc1ccc(CCNC(=O)c2ccc3cc[nH]c3c2)cc1
- IC50 (PBLUC_HILL_SLOPE 0.599, PBLUC_R_SQUARED 0.245, read-out: LUCIFERASE INFECTION ASSAY - IC50): 4.75 µM
- IC90: > 11.2 µM

Structure (SMILES): COc1cccc(C(=O)N(c2nc3ccccc3s2)c2c(C)cccc2C)c1
- IC50 (PBLUC_HILL_SLOPE 0.58, PBLUC_R_SQUARED 0.199, read-out: LUCIFERASE INFECTION ASSAY - IC50): > 10 µM
- IC90: > 10 µM

Structure (SMILES): O=C(CCc1ccc2c(c1)OCO2)Nc1nc(-c2ccc(Br)s2)cs1
- IC50 (PBLUC_HILL_SLOPE 0.607, PBLUC_R_SQUARED 0.509, read-out: LUCIFERASE INFECTION ASSAY - IC50): 5.99 µM
- IC90: > 10 µM

Structure (SMILES): CN(C)CC(C)(C)CNc1nn2cc(-c3ccccc3)nc2s1
- IC50 (PBLUC_HILL_SLOPE 0.619, PBLUC_R_SQUARED 0.654, read-out: LUCIFERASE INFECTION ASSAY - IC50): 0.732 µM
- IC90: > 10 µM

Structure (SMILES): C=c1onc(-c2c(F)cccc2Cl)c1=C1NC(c2cc(C(F)(F)F)cc(C(F)(F)F)c2)=NO1
- IC50 (PBLUC_HILL_SLOPE 0.442, PBLUC_R_SQUARED 0.157, read-out: LUCIFERASE INFECTION ASSAY - IC50): > 6.71 µM
- IC90: > 6.71 µM

Structure (SMILES): Cc1ccc2nc(NC(=O)c3ccc(F)c(F)c3)c(C(=O)NCC(C)C)n2c1
- IC50 (PBLUC_HILL_SLOPE 0.472, PBLUC_R_SQUARED 0.144, read-out: LUCIFERASE INFECTION ASSAY - IC50): > 8.54 µM
- IC90: > 8.54 µM

Structure (SMILES): COc1ccc(/C=N/OCC(=O)Nc2ccccc2C(F)(F)F)cc1
- IC50 (PBLUC_HILL_SLOPE 0.525, PBLUC_R_SQUARED 0.458, read-out: LUCIFERASE INFECTION ASSAY - IC50): > 10 µM
- IC90: > 10 µM

From ChEMBL document CHEMBL4483862, “Open-source discovery of chemical leads for next-generation chemoprotective antimalarials” (2018)
